# US6924311B2, “Methods for affecting various diseases utilizing LXR compounds” (X-Ceptor Therapeutics, Inc., priority 2001, dated 2005)
# Columns and labels:
# CYP7a mRNA = test: Liver CYP7a mRNA by quantitative PCR in treated mice; format: in vivo; details: for CYP7a mRNA induction: daily oral 7 days
# Excerpt: The CYP7a gene encodes cholesterol 7α-hydroxylase, the rate-limiting enzyme in the catabolic conversion of cholesterol to bile acids. Increases in CYP7a activity stimulate the conversion of cholesterol to bile acids and may reduce plasma cholesterol levels by depleting hepatocytes of cholesterol. Intracellular cholesterol depletion should stimulate the uptake of LDL particles from the plasma by liver hepatocytes. To determine the contribution of LXRα and LXRβ to the induction of CYP7a by LXR agonists, Compound 1 was administered for seven days by daily oral gavage in a sesame oil/ethanol vehicle via a 1-cc syringe fitted with a 20G disposable feeding needle. Compound was solvated in ethanol (5% final volume) and brought up to final volume with sesame oil (Sigma, St. Louis, Mo.). Three hours after the final dose (day 7) animals were sacrificed, livers were harvested, and total liver RNA was isolated using RNeasy kits (QIAGEN Inc.) according to the supplier's total RNA isolation procedure. The RNA samples were further treated with deoxyribonuclease 1 to eliminate contaminating genomic DNA. CYP7a mRNA levels were than analyzed by real-time based quantitative PCR using Perkin Elmer ABI Prism 7700 and Sequence Detection System software (Perkin Elmer). […] As expected no induction is observed in LXRαβ−/− mice.
# ABCA1 mRNA = test: Intestinal mucosa ABCA1 mRNA by quantitative PCR in treated mice; format: in vivo; details: daily oral 7 days
# Description: The LXR pan-agonist-dependent inhibition of cholesterol absorption is believed to result from the ability of LXRs to induce the expression of ATP binding cassette transporters such as ABCA1 in the intestine. To examine the contributions of LXRα and LXRβ to intestinal gene expression and dietary cholesterol absorption, Compound 1 was administered to wildtype, LXRα−/−, LXRβ−/− and LXRαβ−/− mice for seven days by daily oral gavage in a sesame oil/ethanol vehicle via a 1 cc syringe fitted with a 20G disposable feeding needle. Compound was solvated in ethanol (5% final volume) and brought up to final volume with sesame oil (Sigma, St. Louis, Mo.). Three hours after the final dose (day 7) animals were sacrificed, intestines were harvested, and intestinal enterocytes were isolated by gently scraping the mucosa layer away from the rest of the tissue. Total intestinal mucosa RNA was isolated using RNeasy kits (QIAGEN Inc.) according to the supplier's total RNA isolation procedure. The RNA samples were further treated with deoxyribonuclease I to eliminate contaminating genomic DNA. ABCA1 mRNA levels were than analyzed by real-time based quantitative PCR using Perkin Elmer ABI Prism 7700 and Sequence Detection System software (Perkin Elmer). […] No induction is observed in LXRαβ−/− mice. Thus either LXRα or LXRβ alone is sufficient to induce ABCA1 in the intestine and inhibit the absorption of dietary cholesterol.
# [1] = Plasma glucose levels in db/db mice; format: in vivo; details: 50 mg/kg daily oral gavage, 14 days
# Excerpt: Cardiovascular disease is one of the major complications of type II diabetes. […] A mouse model of type II diabetes is the diabetic (db/db) mouse. [See Coleman, D. L. (1978), Obese and Diabetes: Two Mutant Genes Causing Diabetes-Obesity Syndrom In Mice. Diabetologia 14, 141-148; and Hong Chen, Olga […], Louis […], Elizabeth A. Woolf, Xun Weng, Stephen J. Ellis, […], Janice Culpepper, Karen J. More, Roger E. Breitbart, Geoffrey M. Duyk, Robert I. and Jay P. Morgenstern (1996), Evidence That The Diabetes Gene Encodes The Leptin Receptor: Identification Of A Mutation In The Leptin Receptor In db/db Mice, Cell 84, 491-495.] […] To examine the ability of LXR agonists to modulate blood glucose levels, db/db mice were treated for 14 days with 50 mg compound/kg body weight of the LXR agonist Compound 1. As a positive control animals were also treated with 30 mg compound/kg body weight of the retinoid X receptor (RXR) agonist. […] Both compounds were administered by daily oral gavage in a sesame oil/ethanol vehicle via a 1-cc syringe fitted with a 20G disposable feeding needle. […] Plasma glucose levels were determined using a colorimetric enzymatic assay adapted to a 96 well plate format (Sigma, St. Louis, Mo.). […] The absorbance of the samples and standards were read using a Multiskan plate reader.
# LXRα = biological target: T1, LXRα (Homo sapiens, UniProt Q13133); details: stated as considered, no test described; cited from earlier work
# T1 sequence (Q13133 1-447): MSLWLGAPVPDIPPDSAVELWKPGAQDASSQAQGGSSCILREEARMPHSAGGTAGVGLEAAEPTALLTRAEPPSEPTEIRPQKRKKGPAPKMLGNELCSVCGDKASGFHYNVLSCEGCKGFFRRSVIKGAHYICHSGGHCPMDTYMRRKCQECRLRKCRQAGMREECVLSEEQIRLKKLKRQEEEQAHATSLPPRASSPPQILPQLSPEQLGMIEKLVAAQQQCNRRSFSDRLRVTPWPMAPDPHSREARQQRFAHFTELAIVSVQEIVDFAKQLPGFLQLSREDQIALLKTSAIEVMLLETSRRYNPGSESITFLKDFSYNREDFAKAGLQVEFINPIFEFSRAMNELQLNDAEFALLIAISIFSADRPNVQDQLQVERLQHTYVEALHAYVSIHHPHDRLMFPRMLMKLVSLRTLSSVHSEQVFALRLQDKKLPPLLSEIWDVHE
# LXRβ = biological target: T2, LXRβ (Homo sapiens, UniProt P55055); details: stated as considered, no test described; cited from earlier work
# T2 sequence (P55055 1-460): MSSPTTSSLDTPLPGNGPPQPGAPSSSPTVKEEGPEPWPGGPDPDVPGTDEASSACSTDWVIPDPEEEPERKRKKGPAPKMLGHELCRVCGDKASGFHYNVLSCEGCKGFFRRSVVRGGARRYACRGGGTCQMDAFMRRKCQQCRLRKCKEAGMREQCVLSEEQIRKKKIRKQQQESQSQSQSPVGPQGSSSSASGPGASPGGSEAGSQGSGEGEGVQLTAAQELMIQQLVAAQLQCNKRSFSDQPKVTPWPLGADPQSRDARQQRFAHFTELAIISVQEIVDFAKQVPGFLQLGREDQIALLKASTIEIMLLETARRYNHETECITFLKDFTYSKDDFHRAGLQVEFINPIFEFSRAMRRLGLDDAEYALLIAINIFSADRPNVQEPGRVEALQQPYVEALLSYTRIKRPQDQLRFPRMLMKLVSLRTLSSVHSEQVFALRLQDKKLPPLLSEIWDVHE
smiles,measurement,setting,value
"O=S(=O)(c1ccccc1)N(CC(F)(F)F)c1ccc(C(O)(C(F)(F)F)C(F)(F)F)cc1 [Compound 1, N-(2,2,2-trifluoroethyl)-N-[4-(2,2,2-trifluoro-1-hydroxy-1-trifluoromethylethyl)-phenyl]-benzene sulfonamide]",CYP7a mRNA induction,CYP7a mRNA; LXRαβ−/− mice,no induction
same,CYP7a mRNA induction,CYP7a mRNA; LXRα−/− mice,can induce transcription of the CYP7a gene
same,CYP7a induction level relative to wildtype agonist-treated mice,CYP7a mRNA; LXRβ alone (LXRα−/− mice),20%-50%
same,CYP7a mRNA induction,CYP7a mRNA; LXRβ−/− mice,can induce transcription of the CYP7a gene
same,CYP7a mRNA induction,CYP7a mRNA; wildtype mice,can induce transcription of the CYP7a gene
same,ABCA1 mRNA induction in the intestine,ABCA1 mRNA; LXRαβ−/− mice,No induction
same,ABCA1 mRNA fold induction in the intestine,"ABCA1 mRNA; LXRα−/− mice, depending on the strain",7-14 fold
same,ABCA1 mRNA fold induction in the intestine,ABCA1 mRNA; LXRβ−/− mice,9 fold
same,ABCA1 mRNA fold induction in the intestine,"ABCA1 mRNA; wildtype mice, depending on the strain",14-29 fold
same,effect on plasma glucose (hyperglycemia),[1],significantly reduces hyperglycemia in db/db mice
same,binding and activation of LXRα,LXRα,binds and activates both LXRα and LXRβ with similar potency and efficacy
same,binding and activation of LXRβ,LXRβ,binds and activates both LXRα and LXRβ with similar potency and efficacy
